Results reported in ChEMBL document CHEMBL4422615, “Novel non-xanthine antagonist of the A2B adenosine receptor: From HTS hit to lead structure” (Eur J Med Chem, 2019).
The source made the active and inactive calls. The rule behind the calls is not given here.

Tests used:
[1] = target: T1, Adenosine receptor A2b (Homo sapiens, UniProt P29275); assay: Displacement of [3H]DPCPX from human A2B adenosine receptor expressed in HEK293 cell membranes after 60 mins by radioligand displacement assay
T1 sequence (P29275 whole entry): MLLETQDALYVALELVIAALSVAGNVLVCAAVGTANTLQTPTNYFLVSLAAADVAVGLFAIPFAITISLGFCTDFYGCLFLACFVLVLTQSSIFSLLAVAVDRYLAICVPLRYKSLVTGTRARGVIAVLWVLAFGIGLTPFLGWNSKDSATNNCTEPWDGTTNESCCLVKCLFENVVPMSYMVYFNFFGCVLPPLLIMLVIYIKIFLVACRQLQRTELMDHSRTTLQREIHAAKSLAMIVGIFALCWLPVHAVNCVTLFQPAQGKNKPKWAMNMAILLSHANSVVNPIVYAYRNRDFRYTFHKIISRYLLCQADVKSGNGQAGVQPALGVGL

[2] = target: Cytochrome P450 2C9 (Homo sapiens, UniProt P11712); assay: Inhibition of CYP2C9 in human liver microsomes using diclofenac as substrate after 15 mins in presence of NADPH by LC-MS/MS analysis; assay type: ADME
Sequence of Cytochrome P450 2C9 (P11712 whole entry, the tested form may be a part): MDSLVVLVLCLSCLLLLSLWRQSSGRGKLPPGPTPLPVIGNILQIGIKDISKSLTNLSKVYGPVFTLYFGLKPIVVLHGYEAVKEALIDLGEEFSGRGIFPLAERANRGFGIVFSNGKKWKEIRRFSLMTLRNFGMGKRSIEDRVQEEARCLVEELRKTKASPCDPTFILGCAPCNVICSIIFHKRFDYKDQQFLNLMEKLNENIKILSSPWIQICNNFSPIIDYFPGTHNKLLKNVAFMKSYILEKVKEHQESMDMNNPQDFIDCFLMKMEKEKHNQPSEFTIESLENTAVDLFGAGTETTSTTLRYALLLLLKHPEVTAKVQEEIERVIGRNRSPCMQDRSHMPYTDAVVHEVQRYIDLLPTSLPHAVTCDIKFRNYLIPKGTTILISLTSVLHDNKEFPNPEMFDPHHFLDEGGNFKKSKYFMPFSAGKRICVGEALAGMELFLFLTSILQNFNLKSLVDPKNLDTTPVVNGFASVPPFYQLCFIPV

[3] = Dose normalized AUC in rat at 0.3 mg/kg, iv administered as infusion for 15 mins by HPLC-MS/MS analysis; assay type: ADME, organism-based; conditions: in vivo, 0.25 h
[4] = MRT in rat at 1 mg/kg, po for 15 mins by HPLC-MS/MS analysis; assay type: ADME, organism-based; conditions: in vivo
[5] = target: T2, Adenosine receptor A2a (Homo sapiens, UniProt P29274); assay: Displacement of [3H]CGS21680 from human A2A adenosine receptor expressed in HEK293 cell membranes after 120 mins by radioligand displacement assay
T2 sequence (P29274 whole entry): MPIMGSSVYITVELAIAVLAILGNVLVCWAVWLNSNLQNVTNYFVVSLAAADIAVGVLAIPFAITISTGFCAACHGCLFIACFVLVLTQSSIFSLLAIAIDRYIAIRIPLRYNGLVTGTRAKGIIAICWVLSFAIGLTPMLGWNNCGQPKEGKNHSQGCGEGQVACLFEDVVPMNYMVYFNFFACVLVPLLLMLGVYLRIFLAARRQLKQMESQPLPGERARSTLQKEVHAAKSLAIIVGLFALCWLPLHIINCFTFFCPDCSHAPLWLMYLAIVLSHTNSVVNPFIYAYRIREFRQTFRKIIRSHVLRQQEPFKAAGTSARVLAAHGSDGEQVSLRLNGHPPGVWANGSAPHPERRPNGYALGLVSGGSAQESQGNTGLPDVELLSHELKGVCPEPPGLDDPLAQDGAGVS

[6] = test system: Mus musculus; assay: Antifibrotic activity in FITC-induced C57BL/6J mouse pulmonary fibrosis model assessed as reduction in osteopontin level in BALF at 100 to 500 mg/kg, bid administered via gavage pretreated for 45 mins before FITC addition until 72 hrs after FITC application by ELISA; assay type: functional, organism-based
[7] = Fraction unbound in human plasma by equilibrium dialysis method; assay type: ADME, cell-free
[8] = Oral bioavailability in rat at 1 mg/kg for 15 mins by HPLC-MS/MS analysis; assay type: ADME, organism-based; conditions: in vivo
[9] = Volume of distribution at steady state in mouse at 0.3 mg/kg, iv administered as bolus dose by HPLC-MS/MS analysis; assay type: ADME, organism-based; conditions: in vivo, read-out: Vdss
[10] = Half life in rat at 1 mg/kg, po for 15 mins by HPLC-MS/MS analysis; assay type: ADME, organism-based; conditions: in vivo
[11] = Dose normalized AUC in rat at 1 mg/kg, po for 15 mins by HPLC-MS/MS analysis; assay type: ADME, organism-based; conditions: in vivo, 0.25 h
[12] = Dose normalized AUC in dog at 0.3 mg/kg, iv administered as infusion for 15 mins by HPLC-MS/MS analysis; assay type: ADME, organism-based, Canis lupus familiaris; conditions: in vivo, 0.25 h
[13] = target: T3, Adenosine receptor A2b (Rattus norvegicus, UniProt P29276); assay: Antagonist activity at recombinant rat A2B adenosine receptor expressed in CHO cells after 3 to 4 hrs by luciferase reporter gene assay; assay type: cell-based
T3 sequence (P29276 whole entry): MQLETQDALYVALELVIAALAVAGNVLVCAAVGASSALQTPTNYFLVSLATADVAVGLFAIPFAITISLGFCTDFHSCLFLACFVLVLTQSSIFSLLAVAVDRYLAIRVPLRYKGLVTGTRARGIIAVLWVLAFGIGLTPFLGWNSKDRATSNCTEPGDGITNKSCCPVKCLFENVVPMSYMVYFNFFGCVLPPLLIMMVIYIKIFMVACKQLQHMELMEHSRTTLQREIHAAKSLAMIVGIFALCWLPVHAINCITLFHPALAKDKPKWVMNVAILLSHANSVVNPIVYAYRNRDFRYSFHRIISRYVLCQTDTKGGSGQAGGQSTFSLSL

[14] = Oral bioavailability in mouse at 1 mg/kg administered as bolus dose by HPLC-MS/MS analysis; assay type: ADME, organism-based; conditions: in vivo
[15] = Efflux ratio in human Caco2 cells; assay type: ADME, cell-based; conditions: Caco-2
[16] = Clearance in rat blood at 0.3 mg/kg, iv administered as bolus dose by HPLC-MS/MS analysis; assay type: ADME, organism-based
[17] = target: T4, Nuclear receptor subfamily 1 group I member 2 (Homo sapiens, UniProt O75469); assay: Activation of PXR in human HepG2 cells assessed as induction of CYP3A4 expression by luciferase reporter gene assay; assay type: ADME, cell-based
T4 sequence (O75469 whole entry): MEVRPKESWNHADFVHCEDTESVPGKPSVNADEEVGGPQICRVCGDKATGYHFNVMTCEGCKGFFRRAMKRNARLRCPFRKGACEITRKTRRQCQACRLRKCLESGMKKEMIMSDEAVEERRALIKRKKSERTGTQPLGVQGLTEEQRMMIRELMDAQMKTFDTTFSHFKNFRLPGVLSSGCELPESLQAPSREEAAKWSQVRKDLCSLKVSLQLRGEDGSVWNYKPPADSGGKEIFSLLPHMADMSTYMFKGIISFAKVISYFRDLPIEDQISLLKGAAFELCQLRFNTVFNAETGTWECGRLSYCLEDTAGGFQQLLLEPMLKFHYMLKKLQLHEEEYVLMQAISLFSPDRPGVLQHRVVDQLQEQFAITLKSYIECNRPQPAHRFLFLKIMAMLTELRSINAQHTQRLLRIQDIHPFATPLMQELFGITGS

[18] = target: T5, Adenosine receptor A1 (Mus musculus, UniProt Q60612); assay: Antagonist activity at recombinant mouse A1 adenosine receptor expressed in CHO cells after 3 to 4 hrs by luciferase reporter gene assay; assay type: cell-based
T5 sequence (Q60612 whole entry): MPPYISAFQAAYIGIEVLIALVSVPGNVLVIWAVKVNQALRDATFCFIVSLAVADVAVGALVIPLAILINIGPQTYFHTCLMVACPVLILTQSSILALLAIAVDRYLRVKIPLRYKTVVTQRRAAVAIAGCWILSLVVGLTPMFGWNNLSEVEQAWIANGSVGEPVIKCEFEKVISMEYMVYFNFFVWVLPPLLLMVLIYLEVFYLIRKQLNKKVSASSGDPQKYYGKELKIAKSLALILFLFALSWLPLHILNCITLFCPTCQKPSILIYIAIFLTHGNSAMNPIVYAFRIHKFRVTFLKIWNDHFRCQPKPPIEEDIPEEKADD

[19] = Blood clearance in human by measuring intrinsic clearance in human hepatocytes by MS/MS analysis; assay type: ADME, cell-based
[20] = target: T2, Adenosine receptor A2a; assay: Antagonist activity at recombinant human A2A adenosine receptor expressed in CHO cells after 3 to 4 hrs by luciferase reporter gene assay; assay type: cell-based
[21] = test system: Mus musculus; assay: Antifibrotic activity in FITC-induced C57BL/6J mouse pulmonary fibrosis model assessed as reduction in osteopontin level in lung at 100 to 500 mg/kg, bid administered via gavage pretreated for 45 mins before FITC addition until 72 hrs after FITC application by ELISA; assay type: functional, organism-based

- IC50 [1]: 59 to 66 nM
- IC50 [2]: > 20000 nM
- AUC/dose [3]: 0.88 kg·h/L
- MRT [4]: 2 h
- Ki [5]: > 1000 nM
- fraction unbound [7]: 0.6
- bioavailability [8]: 88%
- Vd [9]: 0.4 L/kg
- half-life [10]: 1.4 h
- AUC/dose [11]: 0.78 kg·h/L
- AUC/dose [12]: 2.5 kg·h/L
- IC50 [13]: 280 nM
- bioavailability [14]: 65%
- efflux ratio [15]: 0.82
- clearance [16]: 23.3 mL/min/kg
- MEC [17]: 21 ×10⁻⁶ mol/L
- IC50 [18]: > 6700 nM
- CLhep predicted [19]: < 3.5 mL/min/kg
- IC50 [20]: 820 nM
Structure (SMILES): CCn1c(=O)c2c(C)c(C(=O)N3CCC(O)CC3)sc2n(CCC(F)(F)F)c1=O
- Activity [6]: Active
- Activity [21]: inactive
